Where two headings read alike, the source gives them in different places.
Legend:
[1] = system: cuprizone-induced demyelination; settings: cited from earlier work
[2] = system: human primary fibroblasts (CRL2097); assay: Morphology screening for conversion of fibroblasts into oligodendrocyte-like cells; format: cell-based; settings: for morphological changes in fibroblasts (dendritic and dome-shaped): human fibroblasts CRL2097, phase-contrast, vs solvent control (FIG. 1A)
Description: The human normal foreskin skin fibroblast primary cells (CRL-2097) were obtained from the ATCC. CRL-2097 cells were cultured at 37° C. with 5% CO2 in high glucose Dulbecco's Modified Eagle's Medium (HG-DMEM) (Life Technologies) supplemented with 10% fetal bovine serum (FBS) (Hyclone). Cell viability was determined by trypan blue staining. All of the cultures were free of mycoplasma. This study was approved by the Academia Sinica ethics committee (IRB number: AS-IRB-BM-17008, AS-IRB-BM-20038). Cells (1×10^4 per well) were plated on 24-well plates. Cells were cultured in HG-DMEM (Life Technologies) supplemented with 10% fetal bovine serum (FBS) (Hyclone) for 2 days. Then the medium was replaced with DMEM/F12 (Gibco) with 1% N2 supplement, 1% B27 supplement (all from Life Technologies), 20 ng/ml Platelet-Derived Growth Factor AA (PDGF-AA), 20 ng/ml Epidermal Growth Factor (EGF), 20 ng/mL Basic Fibroblast Growth Factor (bFGF), 20 ng/ml Neurotrophin-3 (NT3) (all from Peprotech). Then the cells were treated with 3 mM valproic acid (Tocris) for 2 days, 10 μM Y27632 (LC Laboratories), 10 μM SU9516 (R&D Systems), and 10 μM Forskolin (FSK) (Tocris) for 1 day. The reagent is listed in supplementary Table S1 and Table S2. To find out which chemicals could convert fibroblasts into oligodendrocyte-like cells, we screened chemically-treated cells based on morphological changes that included the formation of a dendritic morphology of neural lineage cells and the dome-shaped morphology of the cell bodies of oligodendrocytes. In a preliminary screen, two chemicals, Y27632 and SU9516, were identified that may be involved in triggering the generation of oligodendrocyte-like cells from human primary fibroblasts (CRL2097). […] To characterize the induced oligodendrocyte-like cells, we performed immunofluorescence staining to analyze the expression of oligodendrocyte-specific markers. […] Next, to optimize the two-chemical cocktail, we performed an additional high-throughput screen using a chemical library of over 1,500 molecules purchased from Selleckchem®. […]

[3] = system: human primary fibroblasts (CRL2097); assay: Immunofluorescence staining of oligodendrocyte-specific markers in chemically treated fibroblasts; format: cell-based; settings: compared to the solvent control group (FIG. 1B)
Description: Cells (1×10^4 per well) were plated on 24-well plates. Cells were cultured in HG-DMEM (Life Technologies) supplemented with 10% fetal bovine serum (FBS) (Hyclone) for 2 days. Then the medium was replaced with DMEM/F12 (Gibco) with 1% N2 supplement, 1% B27 supplement (all from Life Technologies), 20 ng/ml Platelet-Derived Growth Factor AA (PDGF-AA), 20 ng/ml Epidermal Growth Factor (EGF), 20 ng/mL Basic Fibroblast Growth Factor (bFGF), 20 ng/ml Neurotrophin-3 (NT3) (all from Peprotech). Then the cells were treated with 3 mM valproic acid (Tocris) for 2 days, 10 μM Y27632 (LC Laboratories), 10 μM SU9516 (R&D Systems), and 10 μM Forskolin (FSK) (Tocris) for 1 day. The reagent is listed in supplementary Table S1 and Table S2. Cells were fixed with 4% formaldehyde for 15 minutes at room temperature, and washed once with 1×Phosphate Buffered Saline (PBS). Cells were permeabilized with 0.3% Triton X-100 for 5 minutes, washed twice with 1×PBS, and blocked in 2% Bovine Serum Albumin (BSA) in PBS for 30 minutes. […] Fluorescence was analyzed using a fluorescence microscope (Axiovert 200 M, Zeiss).

Row | SMILES | morphological changes in fibroblasts (dendritic and dome-shaped) [2] | expression of oligodendrocyte-specific marker 4 (O4) by immunofluorescence [3] | further results
1 | CNC(=O)c1cc(Oc2ccc3nc(N[C@@H]4CCCC[C@H]4O)sc3c2)ccn1 [BLZ945] | – | – | remyelination ([1]; 5-week cuprizone-induced model, ref [34]): enhances remyelination
2 | CC(C)(C)[C@]1(O)CC2OC(=O)CC23C(=O)OC2OC(=O)[C@H](O)C231 (some centres unmarked) [Bilobalide] | – | – | remyelination ([1]; cuprizone-induced 6-week model, ref [36]): promote remyelination
3 | COc1ccc2c(c1)c(CC(=O)O)c(C)n2C(=O)c1ccc(Cl)cc1 [Indomethacin] | – | – | remyelination ([1]; 10-week cuprizone-induced demyelination model, ref [33]): promote remyelination
4 | COc1ccc2c(c1)/C(=C/c1cnc[nH]1)C(=O)N2 [SU9516, (Z)-3-((1H-imidazol-5-yl)methylene)-5-methoxyindolin-2-one] | induced morphological changes | higher 04 expression | –
5 | CCCC(CCC)C(=O)O [VPA, valproic acid] | – | – | conversion efficiency, VPA pretreatment vs co-treatment with YSF ([2]; VPA 2 days then YSF 1 day, or VPA co-treated with YSF 1 day (FIG. 1D)): only pretreatment could improve the conversion efficiency
6 | C[C@@H](N)[C@H]1CC[C@H](C(=O)Nc2ccncc2)CC1 [Y27632, Trans-4-[(1R)-1-Aminoethyl]-N-(4-pyridinyl)cyclohexanecarboxamide] | induced morphological changes | higher 04 expression | –

Reference: US20240316014A1, “METHOD FOR TREATING DEMYELINATING CONDITIONS” (ACADEMIA SINICA, priority 2023, published 2024)
